This is an account of results in patent publication US20220411414A1, “INHIBITORS FOR THE B-CATENIN/B-CELL LYMPHOMA 9 (BCL9) PROTEIN-PROTEIN INTERACTION” (H. LEE MOFFITT CANCER CENTER AND RESEARCH INSTITUTE, INC., priority 2018, published 2022).

The target in one assay is T1, β-catenin/BCL9 (Homo sapiens, UniProt P35222).
T1 construct: Full-length β-catenin and (residues 1-781) were cloned into a pET-28b vector carrying a C-terminal 6× histidine; made in house; host or cells: E. coli BL21 DE3
T1 sequence (P35222 1-781): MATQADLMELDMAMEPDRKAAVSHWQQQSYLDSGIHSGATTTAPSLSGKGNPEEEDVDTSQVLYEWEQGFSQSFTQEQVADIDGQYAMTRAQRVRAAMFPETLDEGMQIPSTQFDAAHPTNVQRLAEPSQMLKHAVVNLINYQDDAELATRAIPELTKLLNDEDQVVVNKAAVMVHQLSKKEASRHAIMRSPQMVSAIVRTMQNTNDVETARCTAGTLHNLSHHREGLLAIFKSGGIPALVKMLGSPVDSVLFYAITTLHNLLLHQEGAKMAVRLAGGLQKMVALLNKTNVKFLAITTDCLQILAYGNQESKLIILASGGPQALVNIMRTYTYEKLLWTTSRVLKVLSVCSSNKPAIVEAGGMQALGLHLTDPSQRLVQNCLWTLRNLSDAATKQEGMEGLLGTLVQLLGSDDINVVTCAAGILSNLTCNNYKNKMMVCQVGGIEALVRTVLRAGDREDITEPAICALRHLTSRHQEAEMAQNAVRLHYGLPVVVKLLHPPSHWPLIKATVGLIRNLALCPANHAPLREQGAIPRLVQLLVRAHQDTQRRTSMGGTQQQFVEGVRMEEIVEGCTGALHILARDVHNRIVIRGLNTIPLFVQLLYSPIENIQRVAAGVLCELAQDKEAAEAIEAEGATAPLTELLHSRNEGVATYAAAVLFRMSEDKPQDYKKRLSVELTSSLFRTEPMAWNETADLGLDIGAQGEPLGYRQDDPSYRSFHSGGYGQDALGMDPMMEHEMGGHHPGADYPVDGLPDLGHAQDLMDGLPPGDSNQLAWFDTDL
The assay is described as follows: AlphaScreen competitive inhibition assay, β-catenin/BCL9 PPI. The settings on record: for Ki: AlphaScreen. Type of assay: binding. The text has this: The biochemical AlphaScreen assay was employed to evaluate the inhibitory potency of these two final products for disruption of the β-catenin/BCL9 PPI.
BCL9 peptide synthesis and purification. Human BCL9 (residues 350-375), N-terminally biotinylated human BCL9 (residues 350-375), human E-cadherin (residues 824-877), and N-terminally biotinylated human E-cadherin (residues 824-877) were synthesized by InnoPep Inc. (San Diego, Calif., www.innopep.com). All synthesized peptides were purified by HPLC with purity >95%. The structures were validated by LC/MS. The sequences are as follows (Ahx, 6-aminohexanoic acid).
For the β-catenin/BCL9 assay, 5 nM of biotinylated BCL9 and 40 nM of His6-tagged β-catenin were incubated in assay buffer at 4° C. for 30 min. For the β-catenin/E-cadherin assay, 10 nM of biotinylated human E-cadherin, and 40 nM of His6-tagged human β-catenin were added and incubated in assay buffer at 4° C. for 30 min. Different concentrations of the tested peptide or inhibitor were added and incubated in 20 μL assay buffer at 4° C. for another 1.5 h. All of the above assay plates were covered and gently mixed on an orbital shaker. The donor and acceptor beads were then added to the plates to a final concentration of 10 μg/mL in 25 μL assay buffer. The mixture was incubated for 1 h at 4° C. before detection. The IC50 value was determined by nonlinear least-square analysis of GraphPad Prism 5.0. The inhibition constant (Ki) values were derived from the IC50 values using a method reported by Nikolovska-Coleska et al (Nikolovska-Coleska, Z.; Wang, R.; Fang, X.; Pan, H.; Tomita, Y.; Li, P.; Roller, P. P.; Krajewski, K.; Saito, N. G.; Stuckey, J. A.; Wang, S. Development and optimization of a binding assay for the XIAP BIR3 domain using fluorescence polarization, Anal. Biochem. 2004, 332, 261-273.). The assays were conducted under the conditions required by Nikolovska-Coleska et al.'s equation for determining the Ki values. All of the experiments were performed in triplicate. The results were expressed as mean±standard deviation. The inhibitor selectivity for, β-catenin/BCL9 over, β-catenin/E-cahderin interactions was defined as the ratio of the respective Ki value of β-catenin/E-cadherin interactions over that of β-catenin/BCL9 interactions.

Assay [1] concerns FOPFlash (three mutant Tcf4 binding sites) luciferase reporter. Briefly: FOPFlash luciferase reporter assay. Type of assay: cell-based. The following applies: FIG. 1. The protocol:
(§1) Cell transfection and luciferase assay. FuGENE6 (E269A, Promega) 96 well plate format was used for the transfection of HEK293 and SW480 cells according to the manufacturer's instruction. HEK293 cells were co-transfected with 45 ng of TOPFlash or FOPFlash reporter gene, 135 ng pcDNA3.1-β-catenin, and 20 ng of pCMV-RL normalization reporter gene. SW480 cells were co-transfected with 60 ng of the TOPFlash or FOPFlash reporter gene and 40 ng of pCMV-RL normalization reporter. Cells were cultured in DMEM and 10% FBS at 37° C. for 24 h, and different concentrations of inhibitors or DMSO was added. After 24 h, the luciferase reporter activity was measured using the Dual-Glo system (E2940, Promega). Normalized luciferase activity in response to the treatment with 4 and 5 was compared with that obtained from the cells treated with DMSO. Experiments were performed in triplicate.

The test system of assay [2] is TOPFlash (three wild-type Tcf binding sites) luciferase reporter. Briefly: Wnt-responsive TOPFlash luciferase reporter assay, SW480. Type of assay: cell-based. The settings on record: Homo sapiens, 24 h treatment, read-out: TOPFlash IC50 ± SD SW480. The protocol:
as §1, with “The TOPFlash luciferase reporter assay (in which the luciferase reporter has three wild-type Tcf4 binding sites) was performed with 4 and 5. Cell transfection” for “Cell transfection”

The target of a further assay is T2, β-catenin/E-cadherin (Homo sapiens, UniProt P35222).
T2 construct: Full-length β-catenin and (residues 1-781) were cloned into a pET-28b vector carrying a C-terminal 6× histidine; made in house; host or cells: E. coli BL21 DE3
T2 sequence (P35222 1-781): T1 sequence (P35222 1-781)
The assay is described as follows: AlphaScreen selectivity assay, β-catenin/E-cadherin PPI. Type of assay: binding. The following applies: Table 2, read-out: Ki ± SD β-catenin/E-cadherin. The text has this:
Compounds 4 and 5 were further evaluated with their selectivities for the disruption of β-catenin/BCL9 over β-catenin/E-cadherin interactions using the AlphaScreen selectivity assay (Zhang, M.; Wisniewski, J. A.; Ji, H AlphaScreen selectivity assay for, β-catenin/B-cell lymphoma 9 inhibitors. Anal. Biochen. 2015, 469, 43-53.).
BCL9 peptide synthesis and purification. Human BCL9 (residues 350-375), N-terminally biotinylated human BCL9 (residues 350-375), human E-cadherin (residues 824-877), and N-terminally biotinylated human E-cadherin (residues 824-877) were synthesized by InnoPep Inc. (San Diego, Calif., www.innopep.com). All synthesized peptides were purified by HPLC with purity >95%. […]
For the β-catenin/BCL9 assay, 5 nM of biotinylated BCL9 and 40 nM of His6-tagged β-catenin were incubated in assay buffer at 4° C. for 30 min. […] The IC50 value was determined by nonlinear least-square analysis of GraphPad Prism 5.0. The inhibition constant (Ki) values were derived from the IC50 values using a method reported by Nikolovska-Coleska et al (Nikolovska-Coleska, Z.; Wang, R.; Fang, X.; Pan, H.; Tomita, Y.; Li, P.; Roller, P. P.; Krajewski, K.; Saito, N. G.; Stuckey, J. A.; Wang, S. Development and optimization of a binding assay for the XIAP BIR3 domain using fluorescence polarization, Anal. Biochem. 2004, 332, 261-273.). […] The results were expressed as mean±standard deviation. […]

Assay [3] has as its system TOPFlash (three wild-type Tcf binding sites) luciferase reporter. Briefly: Wnt-responsive TOPFlash luciferase reporter assay, β-catenin-activated HEK239. Type of assay: cell-based. The following applies: 24 h treatment, read-out: TOPFlash IC50 ± SD β-catenin-activated HEK239. As for the experimental part:
as §1, with “The TOPFlash luciferase reporter assay (in which the luciferase reporter has three wild-type Tcf4 binding sites) was performed with 4 and 5. Cell transfection” for “Cell transfection”

In the next assay the test system is A549. Briefly: MTs growth inhibition assay, A549 (Wnt-latent). Type of assay: cell-based. The following applies: Homo sapiens, read-out: MTs IC50 ± SD A549.
In another assay the test system is Wnt target genes. The settings on record: literature; cited from earlier work.
The target of another assay is T3, activated β-catenin (Homo sapiens, UniProt P35222).
T3 sequence (P35222 1-781): T1 sequence (P35222 1-781)
The settings on record: literature; cited from earlier work.

Assay [4] addresses T4, β-catenin/BCL9 interaction (Homo sapiens, UniProt P35222).
T4 sequence (P35222 1-781): T1 sequence (P35222 1-781)
The settings on record: literature; cited from earlier work.

`Cl.Cl.O=C(Nc1ccc(O[C@@H]2CCNC2)c(-c2cccc(-c3nn[nH]n3)c2)c1)c1ccc(O[C@H]2CCNC2)c(-c2ccc3ccsc3c2)c1` [Compound 5, (R)-3-((5-(3-(benzo[b]thiophen-6-yl)-4-(((S)-pyrrolidin-1-ium-3-yl)oxy)benzamido)-3′-(2H-tetrazol-5-yl)-[1,1′-biphenyl]-2-yl)oxy) pyrrolidin-1-ium chloride]: the “selectivity for β-catenin/BCL9 over β-catenin/E-cadherin PPIs (in words)” value on β-catenin/BCL9 (AlphaScreen biochemical assay) was “exceptionally high selectivity”. In addition, the Ki at β-catenin/BCL9 (Table 1, mean ± SD (n = 3)) is 1.6 ± 0.23 µM; on β-catenin/BCL9 (Table 2, mean ± SD (n = 3)) it was 1.6 ± 0.23 µM; at β-catenin/E-cadherin, greater than 915 µM. For the same compound, the “Selectivity BCL9/cadherin” value on β-catenin/BCL9 (ratio of Ki β-catenin/E-cadherin over Ki β-catenin/BCL9) is reported as greater than 570. Also, in assay [1], the FOPFlash luciferase activity result is on record as “did not inhibit”. In addition, the 50% inhibitory concentration (IC50) in [2] was 43 ± 3.4 µM; in [3] it was 50 ± 5.2 µM; with A549, greater than 400 µM.

With `CC(C)c1cc2c(c(O)c1O)[C@@]1(C(=O)O)CCCC(C)(C)[C@@H]1CC2` [carnosic acid], in the assay with Wnt target genes, the “transcription of Wnt target genes / β-catenin-dependent transcription” value is given as “inhibit”. In addition, the “destabilization of activated β-catenin” value on activated β-catenin is reported as “destabilize”. In addition, the “disruption of the β-catenin/BCL9 interaction” value in [4] was “can disrupt the β-catenin/BCL9 interaction”.
